Data published in PubChem BioAssay (NCI).
Several values for one entry are separate records, joined by “and”; a condition that tells them apart may be missing. Equal entries are not always repeated.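 Compound exposure: 48 hours, 5 concentrations, 96-well plates. At the GI50, growth is halved. At the TGI there is no net growth.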

What was measured:
Assay in all cases: growth of human tumour cells (NCI), 48 h
ACHN renal = tested on: ACHN renal
DMS 273 small cell lung = tested on: DMS 273 small cell lung
CAKI-1 renal = tested on: CAKI-1 renal
LXFL 529 NSCLC = tested on: LXFL 529 NSCLC
K-562 leukemia = tested on: K-562 leukemia
OVCAR-5 ovarian = tested on: OVCAR-5 ovarian
COLO 205 colon = tested on: COLO 205 colon
SR leukemia = tested on: SR leukemia
DMS 114 small cell lung = tested on: DMS 114 small cell lung
MDA-MB-435 = tested on: MDA-MB-435

SMILES | TGI (ACHN renal) | TGI (DMS 273 small cell lung) [µM] | TGI (CAKI-1 renal) | TGI (LXFL 529 NSCLC) [µM] | TGI (K-562 leukemia) [µM] | TGI (OVCAR-5 ovarian) | TGI (COLO 205 colon) [µM] | GI50 (ACHN renal) [µM] | GI50 (DMS 273 small cell lung) [µM] | GI50 (CAKI-1 renal) [µM] | GI50 (LXFL 529 NSCLC) [µM] | GI50 (K-562 leukemia) [µM] | GI50 (SR leukemia) [µM] | TGI (SR leukemia) [µM] | GI50 (DMS 114 small cell lung) [µM] | TGI (DMS 114 small cell lung) [µM] | GI50 (OVCAR-5 ovarian) [µM] | GI50 (COLO 205 colon) [µM] | TGI (MDA-MB-435) [µM] | GI50 (MDA-MB-435) [µM]
O=C(O)CSc1n[nH]c(-c2ccccc2)n1 | > 100 µM | > 100 | > 100 µM | > 100 | > 100 | > 100 µM | > 100 | – | – | – | – | – | – | – | – | – | – | – | – | –
COc1cccc(/C=N/[N-]C(=O)c2ccncc2)c1[O-].[Cu+2].[OH3+] | > 100 µM | > 100 | > 100 µM | > 100 | > 100 | > 100 µM | > 100 | 90.8 | 48.2 | > 100 | 57.7 | 33.6 | 26.9 | 92 | 71.1 | > 100 | > 100 | 78.4 | – | –
CN(C)c1c([O-])c(=[N+](C)C)c1=O | > 100 µM | > 100 | > 100 µM | > 100 | > 100 | > 100 µM | – | – | – | – | – | – | – | > 100 | – | – | – | – | – | –
Cc1ccc(Cn2c(C)nc3c2C(=O)c2ccccc2C3=O)cc1 | 38.9 µM | 19 | – | 58 | > 100 | – | > 100 | – | – | – | – | – | – | > 100 | – | – | – | – | – | –
CC1=C2CCCC2=C/C(=N/Nc2ccc([N+](=O)[O-])cc2[N+](=O)[O-])CC1 | > 100 µM | > 100 | > 100 µM | > 100 | > 100 | > 100 µM | > 100 | – | – | – | – | – | – | > 100 | – | > 100 | – | – | – | –
O=C1[C@@H]2C3c4ccccc4C([C@@H]2C(=O)N1c1ccccc1)S3(=O)=O | > 100 µM | > 100 | – | > 100 | > 100 | > 100 µM | > 100 | – | – | – | – | – | – | > 100 | – | > 100 | – | – | – | –
C[C@H]1NC(=O)C2CCCCN2C(=O)CN(C)C(=O)CNC(=O)C2CCCCN2C(=O)[C@@H](NC(=O)c2nc3ccccc3cc2O)[C@@H](C)NC(=O)C2CCCCN2C(=O)CN(C)C(=O)CNC(=O)[C@@H]2CCCCN2C(=O)C1NC(=O)c1nc2ccccc2cc1O (stereo partly drawn) | – | 1.07 | 0.768 µM | 0.646 | 1.1 | 7.55 µM | 0.641 | – | – | – | – | – | – | – | – | 0.703 | – | – | – | –
CC(=O)O[C@H]1CCC2[C@@H]3CCC4=C(O)c5nocc5C[C@]4(C)C3CC[C@@]21C (stereo partly drawn) | > 100 µM | > 100 | > 100 µM | > 100 | > 100 | > 100 µM | > 100 | – | – | – | – | – | – | – | – | > 100 | – | – | – | –
CCC1C2C=CC(CC2)N1S(=O)(=O)c1ccc(C)cc1 (stereo not drawn) | > 100 µM | 60.2 | > 100 µM | 55.5 | > 100 | 79 µM | 54.5 | – | – | – | – | – | – | 72.3 | – | 58.1 | – | – | – | –
Cc1ccc(NC(=O)C2C(=O)N(c3ccc(C)c(C)c3)C(=O)C2N=N)cc1C (stereo not drawn) | > 100 µM | > 100 | > 100 µM | > 100 | – | > 100 µM | > 100 | – | – | – | – | – | – | – | – | > 100 | – | – | – | –
CCCCCCC[CH2][Sn]1([CH2]CCCCCCC)[O]C(=O)c2cccnc2[S]1 | > 100 µM | > 100 | > 100 µM | > 100 | > 100 | > 100 µM | > 100 | > 100 | > 100 | > 100 | > 100 | > 100 | > 100 | > 100 | > 100 | > 100 | > 100 | > 100 | – | –
CCc1cccc(C)c1NC(=O)C(=O)Cc1nc2ccccc2o1 | > 100 µM | – | > 100 µM | > 100 | > 100 | > 100 µM | > 100 | – | – | – | – | – | – | > 100 | – | > 100 | – | – | – | –
O=C(CSc1nnc(-c2ccc(N=Cc3ccc(Cl)cc3)cc2)o1)Nc1ccc(Cl)cc1 | > 100 µM | > 100 | – | > 100 | > 100 | – | > 100 | – | – | – | – | – | – | > 100 | – | > 100 | – | – | – | –
CCOc1ccc(N2C(=O)/C(=C/c3ccc(N(CCC#N)CCC#N)cc3)N=C2c2cc([N+](=O)[O-])ccc2Cl)cc1 | > 100 µM | 40.8 | 87.1 µM | 95 | 81.2 | > 100 µM | 44.1 | – | – | – | – | – | – | – | – | > 100 | – | – | – | –
O=C(O)[C@H](NS(=O)(=O)c1ccc2ccccc2c1)c1ccccc1 | > 100 µM | > 100 | > 100 µM | > 100 | > 100 | > 100 µM | > 100 | – | – | – | – | – | – | – | – | – | – | – | – | –
COC1C(O)=C2C(=O)O/C(C)=C/C=C/C=C/C=C\CC(c3ccccc3)NC(=O)\C=C/C=C\C=C\C=C\[C@@]2(C)[C@@H]1O (stereo partly drawn) | 0.122 µM | – | 0.0582 µM | – | 0.158 | 0.413 µM | 0.0564 | – | – | – | – | – | – | 0.165 | – | 0.357 | – | – | 0.044 | –
COc1ccc2oc(-c3cccnc3)cc(=O)c2c1 | > 100 µM | > 100 | > 100 µM | > 100 | > 100 | – | > 100 | – | – | – | – | – | – | – | – | > 100 | – | – | – | –
N=c1ccn2c(n1)OC1C(O)C(CO)OC12 (stereo not drawn) | 14 µM and 3.49 µM | > 364 | 260 µM and > 100 µM | – | > 1000 | 380 µM and > 100 µM | > 1000 | 0.237 | – | 0.394 | – | 81.4 | 2.6 | > 231 | – | > 163 | – | 2.28 | > 1000 | 2.59
O=c1[nH]cc(COCCO)c(=O)[nH]1 | > 100 µM | > 100 | > 100 µM | > 100 | > 100 | > 100 µM | > 100 | – | – | – | – | – | – | – | – | > 100 | – | – | – | –
O=C1c2ccccc2C2(O)c3cc4ccccc4cc3OC12O (stereo not drawn) | > 100 µM | > 100 | > 100 µM | > 100 | > 100 | > 100 µM | > 100 | – | – | – | – | – | – | – | – | 99 | – | – | – | –
Cc1ccc(S(=O)(=O)N/N=C/c2oc(-c3ccncc3)c(-c3ccncc3)c2[N+](=O)[O-])cc1 | > 100 µM | > 100 | > 100 µM | > 100 | > 100 | > 100 µM | > 100 | – | – | – | – | – | – | > 100 | – | – | – | – | – | –
